# Patent publication US20060241082A1, “Modulating vesicular monoamine transporter trafficking and function: a novel approach for the treatment of parkinson's disease” (priority 2002, published 2006)
# Several values for one entry are separate records, joined by “and”; a condition that tells them apart may be missing. Identical values can stand only once. Entries after “also recorded” stand apart in the source; their conditions may differ. Like-named read-outs stand apart in the source and are kept apart here.
# Assays:
# VMAT-2 [1] = molecular target: T1, VMAT-2 (Rattus norvegicus, UniProt Q01827); assay type: in vivo; design: purified striatal vesicles prepared from treated rats; from tissue; host or cells: striatum of male Sprague-Dawley rats (synaptic vesicles; P2, P3, S3 fractions); settings: for Km: read-out: Km of vesicular [3H]DA uptake
# T1 sequence (Q01827 whole entry): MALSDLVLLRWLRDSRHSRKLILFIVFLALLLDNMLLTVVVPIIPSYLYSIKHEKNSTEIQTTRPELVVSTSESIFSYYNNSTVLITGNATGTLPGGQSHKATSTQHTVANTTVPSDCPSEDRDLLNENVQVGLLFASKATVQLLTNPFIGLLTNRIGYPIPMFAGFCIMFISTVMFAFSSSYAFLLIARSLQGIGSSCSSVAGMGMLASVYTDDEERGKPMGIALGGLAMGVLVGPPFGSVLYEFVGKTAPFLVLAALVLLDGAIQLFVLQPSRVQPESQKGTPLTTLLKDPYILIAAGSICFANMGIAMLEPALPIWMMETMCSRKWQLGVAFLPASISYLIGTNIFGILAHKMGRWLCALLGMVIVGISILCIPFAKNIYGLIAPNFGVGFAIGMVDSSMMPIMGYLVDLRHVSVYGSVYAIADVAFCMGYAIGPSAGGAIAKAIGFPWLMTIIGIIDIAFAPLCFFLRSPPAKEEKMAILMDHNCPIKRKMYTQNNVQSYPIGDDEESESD
# Method: Osmolarity was restored by addition of N-(2-hydroxyethyl)-piperazine-N′-2-ethanesulfonic acid (HEPES) and potassium tartrate 25 mM and 100 mM (final concentrations; pH 7.5 at 4° C.), respectively.
# VMAT-2 [2] = molecular target: T1, VMAT-2; assay: [3H]DHTBZ binding in purified striatal vesicles prepared from treated rats
# Method: Synaptic vesicles were obtained from synaptosomes prepared from rat striatum as described above. Synaptosomes were resuspended and homogenized in cold distilled deionized water. Osmolarity was restored by addition of HEPES and potassium tartrate 245 and 100 mM (final concentrations; pH 7.5), respectively. Samples were centrifuged for 20 min at 20,000×g (4° C.) to remove lysed synaptosomal membranes. MgSO4 (1 mM, final concentration) was added to the supernatant, which was then centrifuged for 45 min at 100,000×g (4° C.). The resulting vesicular pellet was resuspended in wash buffer at a concentration of 50 mg/ml (original tissue weight). […] Binding of [^3H]DHTBZ was performed as described by Teng et al. (1998). Briefly, 200 μl of the synaptic vesicle preparation (˜6 μg of protein) was incubated in wash buffer in the presence of [^3H]DHTBZ (2 nM final concentration) for 10 min at 25° C. The reaction was terminated by addition of 1 ml of cold wash buffer and rapid filtration through Whatman GF/F filters soaked in 0.5% polyethylenimine. Filters were washed three times with ice-cold wash buffer. Nonspecific binding was determined by coincubation with 20 μM tetrabenazine. All protein concentrations were determined by a BioRad protein assay (Bio-Rad, Richmond, Calif.).
# Binding of [^3H]DHTBZ was performed as described by Teng et al. (1998). Briefly, 200 μl (˜6 μg protein) of the synaptic vesicle preparation was incubated in wash buffer in the presence of [^3H]DHTBZ (2 nM final concentration except in kinetic analyses wherein 0.25-500 nM DHTBZ was employed) for 10 m in at 25° C. The reaction was terminated by addition of 1 ml cold wash buffer and rapid filtration through Whatman GF/F filters soaked in 0.5% polyethylenimine. Filters were washed three times with ice-cold wash buffer. Radioactivity trapped in filters was counted using a liquid scintillation counter. Nonspecific binding was determined by coincubation with 20 μM TBZ. All protein concentrations were determined by a Bio-Rad protein assay (Bio-Rad Inc.).
# Binding of[^3H]DHTBZ was performed as described by Teng et al. (1998). Briefly, 200 μl (˜5 μg protein) of the synaptic vesicle preparation was incubated in wash buffer in the presence of [^3H]DHTBZ (2 nM final concentration except in kinetic analyses wherein 0.25-500 nM DHTBZ was employed) for 10 m in at 25° C. The reaction was terminated by addition of 1 ml cold wash buffer and rapid filtration through Whatman GF/F filters soaked in 0.5% polyethylenimine. Filters were washed three times with ice-cold wash buffer. Radioactivity trapped in filters was counted using a liquid scintillation counter. Nonspecific binding was determined by coincubation with 20 μM TBZ. All protein concentrations were determined by a Bio-Rad protein assay (Bio-Rad Inc.).
# [3] = Vesicular DA content in purified striatal vesicles of treated rats; assay type: in vivo, rat
# Method: Purified striatal vesicles were prepared as described above. The resulting vesicular pellet was sonicated for approximately 5 sec in cold tissue buffer (0.05 M sodium phosphate/0.03 M citric acid buffer with 15% methanol (v/v); pH 2.5) at a concentration of 100 mg/ml (original wet weight of tissue), and centrifuged for 15 min at 22,000×g. Tissue pellets were retained and protein was determined according to the method of Lowry et al. (1951). 40 μl of supernatant was injected onto a high performance liquid chromatograph system coupled to an electrochemical detector (+0.73 V) for separation and quantitation of DA levels using the method of Chapin et al. (1986).
# VMAT-2 [4] = assay: VMAT-2 immunoreactivity in striatal subcellular fractions (P2, P3, S3) of treated rats (Western blot); assay type: in vivo, rat; settings: 1 h
# Method: Striatal synaptosomes were prepared from rats decapitated 1 h after treatment as previously described (Fleckenstein et al., 1997). Briefly, striatal tissue was homogenized in cold 0.32 M sucrose and centrifuged (800×g for 12 min; 4° C.). The supernatant (S1) was then centrifuged (22,000×g for 15 min; 4° C.) and the resulting pellet (P2, synaptosomal fraction) was resuspended at 50 mg original wet weight/ml in cold water and a portion saved for western blot analysis. The remainder of the synaptosomal sample was centrifuged for 20 min at 22,000×g (4° C.) to pellet lysed synaptosomal membranes (P3, synaptosomal membrane fraction), which were then resuspended at 50 mg original wet weight/ml and saved for western blot analysis. Prior to resuspension of the plasmalemmal membrane fraction the supernatant (S3, vesicle-enriched fraction) was removed and saved for western blot analysis.
# Binding of VMAT-2 antibody was performed using 60 μl aliquots of synaptosomal (P2), synaptosomal membrane (P3), or vesicle-enriched (S3) preparations. Each aliquot was added to 20 μl of loading buffer (final concentration: 2.25% sodium dodecyl sulfate, 18% glycerol, 180 mM Tris base (pH 6.8), 10% β-mercapto-ethanol and bromophenol blue), boiled for 10 min, and loaded on a 10% sodium dodecyl sulfate-polyacrylamide gel. Following electrophoresis, samples were transferred to polyvinlylidene difluoride membrane, blocked with 5% nonfat dry milk in Tris-buffered saline with tween (250 mM NaCl, 50 mM Tris pH 7.4 and 0.05% Tween 20), and probed with the VMAT-2 antibody (provided by J.W.H.). Bound antibody was visualized with HRP-conjugated goat anti-rabbit antibody, and antigen-antibody complexes were visualized by chemiluminescence. Multiple exposures of blots were obtained to ensure development within the linear range of the film. Bands on blots were quantified by densitometry using Kodak 1D image-analysis software.
# Fresh striatal tissue was homogenized in ice-cold 0.32 M sucrose and centrifuged (800×g for 12 min; 4° C.). […] Resuspended tissue was aliquoted into two test tubes. One aliquot was centrifuged (22,000×g for 10 min; 4° C.) to separate plasmalemmal membranes from the synaptic vesicle-enriched fraction. The resulting supernatant (S3) contained the vesicular subcellular fraction of interest, and the pellets (P3; plasmalemmal membrane fraction) were resuspended in cold distilled deionized water.
# VMAT-2 antibody was purchased from Chemicon (Temecula, Calif.; AB1767). Binding of VMAT-2 antibody was performed using 60 μl of whole synaptosomal, plasmalemmal membrane or vesicle subcellular fractions. Samples were added to 20 μl of loading buffer (final concentration: 2.25% SDS, 18% glycerol, 180 mM Tris Base (pH 6.8), 10% […] and bromophenol blue). Approximately 60 μg protein of the whole synaptosomal fraction, 40 μg protein of the plasmalemmal membrane fraction or 20 μg protein of the vesicle subcellular fraction was loaded per well in a 10% SDS-polyacrylamide gel. Following electrophoresis, samples were transferred to polyvinylidene difluoride hybridization transfer membrane (New England Nuclear (NEN), Boston, Mass.). All subsequent incubation steps were performed at room temperature while shaking. Each membrane was first blocked for 2 h in 100 ml of tris buffer saline with tween (TBST; 250 mM NaCl, 50 mM tris pH 7.4 and 0.05% tween 20) containing 5% nonfat dry milk. Each membrane was then incubated with anti-VMAT-2 antibody (1:4000 dilution) in 13 ml of TBST with 5% milk for 1 h and then washed 5 times (2×1 min wash; 3×5 min wash) in 70 ml TBST with 5% milk.
# VMAT-2 [5] = molecular target: VMAT-2 (Mus musculus, UniProt Q8BRU6); assay: Vesicular [3H]dopamine uptake in striatal vesicles prepared from treated mice; assay type: in vivo
# Sequence of VMAT-2 (Mus musculus, UniProt Q8BRU6) (Q8BRU6 whole entry): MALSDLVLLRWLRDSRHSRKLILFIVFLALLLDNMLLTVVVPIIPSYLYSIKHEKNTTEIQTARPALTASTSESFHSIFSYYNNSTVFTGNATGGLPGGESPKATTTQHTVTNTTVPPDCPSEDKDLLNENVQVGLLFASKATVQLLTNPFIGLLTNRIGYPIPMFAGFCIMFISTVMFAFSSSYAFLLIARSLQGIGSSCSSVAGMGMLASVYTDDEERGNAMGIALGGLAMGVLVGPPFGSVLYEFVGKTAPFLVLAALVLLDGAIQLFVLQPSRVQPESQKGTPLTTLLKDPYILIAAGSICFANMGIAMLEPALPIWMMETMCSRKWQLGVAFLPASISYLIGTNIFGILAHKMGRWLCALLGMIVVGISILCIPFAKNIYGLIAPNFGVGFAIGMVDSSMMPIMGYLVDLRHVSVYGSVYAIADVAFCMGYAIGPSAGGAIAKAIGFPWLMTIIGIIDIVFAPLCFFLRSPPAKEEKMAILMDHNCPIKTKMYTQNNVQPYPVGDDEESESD
# Method: (A. E. Fleckenstein, et al., J. Pharmacol Exp Ther. (1997) 282:834-838). Briefly, fresh tissue was homogenized in ice-cold 0.32 M sucrose. The homogenate was centrifuged (800×g for 12 min; 4° C.), and the supernatant (S1) was carefully removed and centrifuged (22,000×g for 15 min; 4° C.) to obtain the synaptosomal-containing pellet (P2). The resulting P2 were resuspended and homogenized in ice-cold distilled deionized water. Osmolarity was restore by addition 25 mM HEPES and 100 mM potassium tartrate (final concentration; pH 7.5 at 4° C. respectively). […] The resultant S3 removed and MgSO4 added (final concentration of [1 mM] pH 7.5 at 4° C.) and centrifuged at 100,000×g for 45 min. The final P4 were resuspended at 50 mg/ml (original tissue wet weight).
# [6] = rats, METH 4 x 7.5 mg/kg s.c., 2-h intervals
# [7] = rats, single 15 mg/kg METH injection s.c., 1 h
# [8] = METH 4 x 7.5 mg/kg s.c., 2-h intervals
# [9] = methamphetamine 4 x 10 mg/kg s.c.
# [10] = MPD-treated rats, 40 mg/kg s.c., 1 h
# [11] = rats, MPD 5 mg/kg s.c. injections
smiles,measurement,setting,value
"CN[C@@H](C)Cc1ccccc1 (racemic) [METH, methamphetamine]",persistence of the decreases in vesicular DA uptake and DHTBZ binding after treatment,"VMAT-2 [1]; rats, METH 4 x 7.5 mg/kg s.c.",at least 6 h
same,vesicular DA uptake 1 h after the last METH injection,VMAT-2 [1]; [6],rapidly decreased
same,Vmax of vesicular [3H]DA uptake,VMAT-2 [1]; [7],607 fmol/μg protein/min
same,Km,VMAT-2 [1]; [7],0.187 µM
same,decrease in vesicular [3H]DA uptake,"VMAT-2 [1]; rats, single METH 15 mg/kg s.c., 1 h",25% and 23%
same,deficit in vesicular [3H]DA uptake 24 h after treatment,"VMAT-2 [1]; rats, single METH 15 mg/kg s.c., 24 h",recovered
same,DHTBZ binding 1 h after the last METH injection,VMAT-2 [2]; [6],rapidly decreased
same,vesicular DA levels,"[3]; METH-treated rats, 4 x 7.5 mg/kg s.c., 1 h after treatment, n=6",2.30±2.5 pg/μg protein
same,decrease in vesicular DA levels,"[3]; rats, METH 4 x 7.5 mg/kg s.c., 2-h intervals, 1 h after treatment",49%
same,decrease in vesicular DA content,"[3]; rats, multiple METH, 6 h after drug treatment",60%
same,VMAT-2 immunoreactivity in the plasmalemmal membrane fraction (P3),VMAT-2 [4]; [8],no change
same,VMAT-2 immunoreactivity in the vesicular subcellular fraction (S3),VMAT-2 [4]; [8],rapidly decreased
same,VMAT-2 immunoreactivity in the whole synaptosomal fraction (P2),VMAT-2 [4]; [8],Slight decreases; also recorded: no change
same,decrease in VMAT-2 immunoreactivity in the P2 fraction,"VMAT-2 [4]; methamphetamine 4 x 10 mg/kg s.c., 2-h intervals",25%
same,decrease in VMAT-2 immunoreactivity in the P2 fraction,"VMAT-2 [4]; methamphetamine 4 x 10 mg/kg s.c., 2-h intervals, listed as methamphetamine",40%
same,VMAT-2 immunoreactivity in the P3 fractions,VMAT-2 [4]; [9],no difference
same,decrease in VMAT-2 immunoreactivity in the S3 fraction,VMAT-2 [4]; [9],80%
same,vesicular [3H]dopamine uptake,"VMAT-2 [5]; methamphetamine 4 x 10 mg/kg s.c., 2-h intervals, 1 and 24 h after treatment",rapidly decreased
"COC(=O)C(c1ccccc1)C1CCCCN1 (centres unmarked) [MPD, methylphenidate]",transporter Vmax of vesicular [3H]DA uptake,VMAT-2 [1]; [10],2350±250 fmol/μg protein/3 min
same,Km,VMAT-2 [1]; [10],0.23 ± 0.01 µM
same,effect of MPD post-treatment on the METH-induced decrease in vesicular DA uptake,"VMAT-2 [1]; rat, in vivo",reversed
same,vesicular DA uptake after MPD treatment per se,VMAT-2 [1]; [11],increased
same,vesicular [3H]DA uptake after a single MPD administration,"VMAT-2 [1]; rats, MPD 5, 10, 20, or 40 mg/kg s.c., 1 h",increases
same,reversal of the increases in vesicular [3H]DA uptake and [3H]DHTBZ binding,"VMAT-2 [1]; rats, after a 40 mg/kg MPD administration",≤ 12 h
same,onset of the increases in vesicular [3H]DA uptake and [3H]DHTBZ binding,"VMAT-2 [1]; rats, single MPD s.c.",≤ 30 min
same,transporter Bmax for [3H]DHTBZ,VMAT-2 [2]; MPD-treated rats,28.87 fmol/μg protein
same,effect of MPD post-treatment on the METH-induced decrease in DHTBZ binding,"VMAT-2 [2]; rats, 1, 2 or 3 injections of MPD 5 mg/kg s.c. during the initial 6-h period after METH",reversed
same,DHTBZ binding after MPD treatment per se,VMAT-2 [2]; [11],increased
same,binding of the VMAT-2 ligand [3H]DHTBZ after a single MPD administration,"VMAT-2 [2]; rats, MPD 5-40 mg/kg s.c., 1 h",increase
same,increase in vesicular DA levels,"[3]; rats, 3 injections of MPD 5 mg/kg s.c. over a 5 h period, 1 h after the last MPD injection",~140%
same,effect of MPD post-treatment on the METH-induced decrease in vesicular DA content,"[3]; rats, 3 injections of MPD after multiple METH regimen, 6 h after METH treatment",reversed
same,VMAT-2 immunoreactivity in the plasmalemmal membrane fraction,VMAT-2 [4]; MPD 40 mg/kg s.c. single,decreased
same,VMAT-2 immunoreactivity in the vesicular subcellular fraction,VMAT-2 [4]; MPD 40 mg/kg s.c. single,increases
same,VMAT-2 immunoreactivity in the whole synaptosomal fraction,VMAT-2 [4]; MPD 40 mg/kg s.c. single,no change
same,vesicular dopamine uptake after a single injection,"VMAT-2 [5]; methylphenidate 10 mg/kg s.c. or cocaine 30 mg/kg i.p., vesicles prepared 1 h after treatment",increased
